# Results reported in ChEMBL document CHEMBL1148724, “Design, synthesis, and biological activity of 5,10-dihydro-dibenzo[b,e][1,4]diazepin-11-one-based potent and selective Chk-1 inhibitors” (J Med Chem, 2007).
# Target: T1, Serine/threonine-protein kinase Chk1 (Homo sapiens, UniProt O14757)
# T1 sequence (O14757 whole entry): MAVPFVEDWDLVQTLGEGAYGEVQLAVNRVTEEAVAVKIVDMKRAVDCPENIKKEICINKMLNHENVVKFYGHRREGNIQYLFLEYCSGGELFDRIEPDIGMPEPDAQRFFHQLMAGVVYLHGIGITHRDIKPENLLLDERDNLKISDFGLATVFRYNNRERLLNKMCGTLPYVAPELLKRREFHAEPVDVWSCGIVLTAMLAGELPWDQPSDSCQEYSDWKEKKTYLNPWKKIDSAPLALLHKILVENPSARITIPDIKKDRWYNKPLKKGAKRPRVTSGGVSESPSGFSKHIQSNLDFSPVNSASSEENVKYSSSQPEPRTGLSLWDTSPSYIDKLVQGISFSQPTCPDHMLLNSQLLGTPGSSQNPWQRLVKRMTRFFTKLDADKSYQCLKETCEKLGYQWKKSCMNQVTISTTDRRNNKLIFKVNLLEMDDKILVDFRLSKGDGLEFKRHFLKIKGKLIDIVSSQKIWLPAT
# Assay: Inhibition of human recombinant Chk1
row,Compound,IC50
1,COc1cc(-c2ccc3c(c2)Nc2ccccc2NC3=O)ccc1Cl,91 nM
2,O=C1Nc2ccccc2C(O)c2ccccc21 (stereo not given),> 50000 nM
3,COc1cc(-c2ccc3c(c2)Nc2ccccc2NC3=O)ccc1C#N,33 nM
4,N#Cc1cccc(-c2ccc3c(c2)Nc2ccccc2NC3=O)c1,970 nM
5,COc1cc(-c2ccc3c(c2)C(=O)Nc2ccccc2N3)ccc1O,> 10000 nM
6,COc1cc(-c2ccc3c(c2)Nc2ccccc2NC3=O)ccc1C(C)=O,48 nM
7,O=c1[nH]c2ccccc2c(=O)c2ccccc12,> 50000 nM
8,COc1cc(-c2ccc3c(c2)Nc2ccccc2NC3=O)ccc1O,82 nM
9,CC(=O)c1ccc(-c2ccc3c(c2)Nc2ccccc2NC3=O)cc1,> 10000 nM
10,CCOc1cccc(-c2ccc3c(c2)Nc2ccccc2NC3=O)c1,> 10000 nM
11,COc1cc(-c2ccc3c(c2)Nc2ccccc2NC3=O)ccc1C(N)=O,88 nM
12,O=C1Nc2ccccc2S(=O)(=O)c2ccccc21,> 50000 nM
13,COC(=O)c1ccc(-c2ccc3c(c2)Nc2ccccc2NC3=O)cc1OC,53 nM
14,O=C1Nc2ccccc2Nc2cc(-c3ccccc3)ccc21,> 10000 nM
15,CC(=O)c1ccccc1-c1ccc2c(c1)Nc1ccccc1NC2=O,8000 nM
16,COc1cccc(-c2ccc3c(c2)Nc2ccccc2NC3=O)c1,500 nM
17,CC(=O)c1cccc(-c2ccc3c(c2)Nc2ccccc2NC3=O)c1,2100 nM
18,N#Cc1ccc(-c2ccc3c(c2)Nc2ccccc2NC3=O)cc1,> 10000 nM
19,COc1ccccc1-c1ccc2c(c1)Nc1ccccc1NC2=O,3600 nM
20,COc1cc(-c2ccc3c(c2)Nc2ccccc2NC3=O)ccc1[N+](=O)[O-],10 nM
